Measured values reported in US9258995B2, “Organ cold storage composition and methods of use” (BOARD OF TRUSTEES OF THE UNIVERSITY OF ARKANSAS, priority 2009, dated 2016).

Tests used:
[1] = tested on: rat kidneys; assay: MitoSOX Red mitochondrial superoxide generation, cold storage ex vivo model
Procedure: (§1) All animals were treated according to the National Institutes of Health Guide for the Care and Use of Laboratory Animals and the University of Arkansas for Medical Sciences Institutional Animal Care and Use Committee guidelines. Male Fischer 344 inbred rats (Charles Rivers Laboratories, Inc., Wilmington, Mass.) weighing between 250 and 300 g were anesthetized with ethrane, followed by shaving and prepping with betadine. […] Bulldog clamps were placed on the aorta and vena cava (proximal and distal to the renal vessels) to prevent blood flow to the kidneys. A 22-gauge surgical needle was used to puncture the rat's aorta to flush the renal grafts with saline (10 ml per kidney) using a small catheter. Once the kidneys started to turn light brown (perfusion), another vent was formed in the vena cava to allow blood flow from the kidneys. Once both kidneys were completely flushed, the right kidney was recovered and served as a control (group 1), and the left kidney was exposed to CS alone for 4 h at 4° C. (group 2). In additional experiments, kidneys were flushed with saline through the aorta using a small catheter followed by flushing the right kidney with saline containing MitoQ (100 μM) and the left kidney with saline containing DecylTPP (100 μM) (10 ml per kidney). Tissues were recovered and stored in CS+MitoQ (100 μM; right kidney) or CS+DecylTPP (100 μM; left kidney) for 4 h at 4° C. (groups 3 and 4, respectively). […]
MitoSOX Red (Invitrogen) was used to measure mitochondrial superoxide generation during CS. […] Fluorescence was visualized using an Eclipse E800 microscope (Nikon, Melville, N.Y.) with a rhodamine filter using a water immersion objective (60×). Fluorescent images of NRK cells were captured with equal exposure times and quantified by averaging the mean intensity fluorescence of five random cells in three different fields using Nikon N is Elements software. In separate experiments, cells were grown on coverslips, preloaded with MitoSOX Red before treatment (groups 1-4), and evaluated for mitochondrial superoxide generation using a Hitachi F-2500 spectrofluorometer (Hitachi, Tokyo, Japan) equipped with a coverslip holder using two different excitation wavelengths: 396 and 510 nm with the emission measured at 580 nm as previously described. In addition, rat kidneys were monitored for mitochondrial superoxide generation by flushing kidneys with saline through the aorta using a small catheter as described under Cold Storage Ex Vivo Model, followed by saline containing MitoSOX Red (5 μM; 10 ml/kidney) before treatment (groups 1-4). Paraffin sections were analyzed using the rhodamine filter on the Nikon Eclipse 800 microscope (20×).

[2] = tested on: rat kidneys; assay: Nitrotyrosine immunohistochemistry during CS; conditions: 4 h CS, 100 μM
Procedure: All animals were treated according to the National Institutes of Health Guide for the Care and Use of Laboratory Animals and the University of Arkansas for Medical Sciences Institutional Animal Care and Use Committee guidelines. Male Fischer 344 inbred rats (Charles Rivers Laboratories, Inc., Wilmington, Mass.) weighing between 250 and 300 g were anesthetized with ethrane, followed by shaving and prepping with betadine. […] Bulldog clamps were placed on the aorta and vena cava (proximal and distal to the renal vessels) to prevent blood flow to the kidneys. A 22-gauge surgical needle was used to puncture the rat's aorta to flush the renal grafts with saline (10 ml per kidney) using a small catheter. Once the kidneys started to turn light brown (perfusion), another vent was formed in the vena cava to allow blood flow from the kidneys. […]
NRK cells (groups 1-4) were assessed for nitrotyrosine formation as previously described. […] Nitrotyrosine staining was evaluated and captured with equal exposure times using a Nikon Eclipse 800 microscope (40×oil). Images were quantified by averaging the mean intensity fluorescence of five random cells in three different fields using Nikon N is Elements software. Renal tissue sections were assessed for the presence of nitrotyrosine protein adducts by nitrotyrosine immunohistochemistry. […]

[3] = tested on: rat kidneys; assay: Periodic acid-Schiff morphological assessment of renal injury during CS; conditions: 4 h CS, 100 μM
Procedure: as §1, with “C.” for “C. (group 2). In additional experiments, kidneys were flushed with saline through the aorta using a small catheter followed by flushing the right kidney with saline containing MitoQ (100 μM) and the left kidney with saline containing DecylTPP (100 μM) (10 ml per kidney). Tissues were recovered and stored in CS+MitoQ (100 μM; right kidney) or CS+DecylTPP (100 μM; left kidney) for 4 h at 4° C. (groups 3 and 4, respectively).”
Renal sections were assessed for tissue injury using the periodic acid-Schiff reaction. […] Morphological evaluation of tubular dilation, brush border loss, and cellular debris/tubular cast formation were performed blindly with light microscopy and assessed semiquantitatively according to the following scoring system: 0, no changes; 1, mild changes; 2, moderate changes, and 3, severe changes.

[4] = tested on: porcine renal mitochondrial respiratory complex II/III; assay: Mitochondrial respiratory complex activity, porcine ex vivo renal model; set-up: protection of porcine complex II/III: dose or concentration left out as unconfirmed
Procedure: FIG. 15 depicts graphs showing activities or (A) porcine renal mitochondrial respiratory complex I, (B) activities or porcine renal mitochondrial respiratory complex II/III, and (C) activities or porcine renal mitochondrial respiratory complex IV, after MitoQ treatment. MitoQ ([…]) protected porcine complex II/III following 24 hr cold preservation. Values are expressed as mean SEM (n=4).
Mitochondrial respiratory complex activity was also evaluated in the porcine ex vivo renal model at 24-h and 48-h CS. […] Protection of Complex II/III by MitoQ (100 μM) was significant following 24-h cold preservation.

[5] = two phase II clinical trials for Parkinson's disease and hepatitis C virus; cited from earlier work

## COC1=C(OC)C(=O)C(CCCCCCCCCC[P+](c2ccccc2)(c2ccccc2)c2ccccc2)=C(C)C1=O [MitoQ, mitoquinone]
[1]; following cold preservation (Example 1)
  mitochondrial superoxide production (Mitosox Red staining): blunted
[1]; rat kidneys, 4 h CS at 4° C., 100 μM
  mitochondrial superoxide generation (MitoSOX Red): markedly decreased
[1]; rat kidneys, cold storage 4 hr UW, 4° C., UW+MitoQ (100 µM), n=3
  MitoSox Red staining (superoxide): decreases
[2]
  nitrotyrosine formation (immunohistochemistry): less nitrotyrosine formation
[3]
  renal histology / renal injury (periodic acid-Schiff staining): improved renal histology significantly
[4]; porcine ex vivo renal model
  protection of Complex II/III activity, 24-h versus 48-h CS: at 24-h better than at 48-h
[4]; porcine kidneys, 24-h cold preservation, MitoQ (100 μM)
  Protection of Complex II/III: significant
[4]; porcine kidneys, 24 hr cold preservation
  protection of porcine complex II/III: protected
[5]
  safety and tolerability: safe and well tolerated
